We go through 16 compounds from US20260274833A1 (NiKang Therapeutics, Inc., priority 2022, published 2026).

In the assay the target is T1, CDK2 (Homo sapiens, UniProt P24941).
T1 construct: endogenous in cells; host or cells: OVCAR3 cells
Nature of the assay: Phospho-RB measurement in OVCAR3 cells (HTRF phospho-RB cellular kit). The format is cell-based. The note with it: inhibition of RB phosphorylation at S807/811 (HTRF, TR-FRET ratio 665/620), 24 h compound treatment, 0.3 to 10,000 nM. A digest of the protocol:
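IC50 came from a four-parameter logistic fit of the DMSO-normalized TR-FRET ratio (665/620 nm). That ratio reflects RB phosphorylation at S807/811, read with an HTRF antibody pair 4 h after adding lysate at room temperature.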
For orientation: Time-resolved FRET reads energy transfer from a long-lived donor to a nearby acceptor.

Usually IC50 stands for the point on the concentration scale where inhibition reaches its midpoint. For the compound `CC(C)(C)c1nc(-c2cccc(NS(=O)(=O)N3CCn4ccnc4C3)c2F)c(-c2ccnc(NC3CCN(S(C)(=O)=O)CC3)n2)s1` [Example 84, N-(3-(2-(tert-butyl)-5-(2-((1-(methylsulfonyl)-piperidin-4-yl)amino)-pyrimidin-4-yl)thiazol-4-yl)-2-fluoro-phenyl)-5,6-dihydroimidazo [1,2-a]-pyrazine-7(8H)-sulfonamide], the half-maximal inhibitory concentration (IC50) is 1.92 µM.

Take `CC(C)(c1nc(-c2cccc(NS(=O)(=O)N3CCc4ccccc43)c2F)c(-c2ccnc(N[C@H]3CC[C@H](S(C)(=O)=O)CC3)n2)s1)C(F)(F)F` [Example 288, N-(2-fluoro-3-(5-(2-(((1r,4r)-4-(methylsulfonyl)cyclohexyl)amino)-pyrimidin-4-yl)-2-(1,1,1-trifluoro-2-methylpropan-2-yl)thiazol-4-yl)phenyl)-indoline-1-sulfonamide]: the IC50 was 0.122 µM.

On to `CC1c2ccccc2CN1S(=O)(=O)Nc1cccc(-c2nc(C(C)(C)C)sc2-c2ccnc(NC3CCN(S(=O)(=O)N4CCNCC4)CC3)n2)c1F` (stereo not shown) [Example 148, N-(3-(2-(tert-butyl)-5-(2-((1-(piperazin-1-ylsulfonyl)piperidin-4-yl)amino)-pyrimidin-4-yl)thiazol-4-yl)-2-fluoro-phenyl)-1-methylisoindoline-2-sulfonamide], for which the IC50 was 0.21 µM.

As to `CN(C)Cc1cccc2c1CN(S(=O)(=O)Nc1cccc(-c3nc(C(C)(C)C)sc3-c3ccnc(NC4CCN(S(C)(=O)=O)CC4)n3)c1F)C2` [Example 167, N-(3-(2-(tert-butyl)-5-(2-((1-(methylsulfonyl)-piperidin-4-yl)amino)-pyrimidin-4-yl)thiazol-4-yl)-2-fluoro-phenyl)-4-((dimethylamino)-methyl)-isoindoline-2-sulfonamide], the IC50 turned out to be 0.41 µM.

On to `CC(C)(C)c1nc(-c2cccc(NS(=O)(=O)N3CCC4(CC4)C3)c2F)c(-c2ccnc(NC3CCN(S(C)(=O)=O)CC3)n2)s1` [Example 166, N-(3-(2-(tert-butyl)-5-(2-((1-(methylsulfonyl)-piperidin-4-yl)amino)-pyrimidin-4-yl)thiazol-4-yl)-2-fluoro-phenyl)-5-azaspiro[2.4] heptane-5-sulfonamide], for which the 50% inhibitory concentration (IC50) came out at 0.277 µM.

As to `O=S1(=O)CC2(CC(Nc3nccc(-c4sc(C56CC(C5)C6)nc4-c4cccc(NS(=O)(=O)N5CCc6c5ccc(F)c6F)c4F)n3)C2)C1` [Example 45, N-(3-(2-(bicyclo [1.1.1]pentan-1-yl)-5-(2-((2,2-dioxido-2-thiaspiro[3.3]heptan-6-yl)amino)-pyrimidin-4-yl)thiazol-4-yl)-2-fluorophenyl)-4,5-difluoroindoline-1-sulfonamide], the 50% inhibitory concentration (IC50) was determined as 0.314 µM.

Take `CC(C)(C)c1nc(-c2cccc(NS(=O)(=O)N3Cc4ccccc4C34CC4)c2F)c(-c2ccnc(NC3CCN(S(C)(=O)=O)CC3)n2)s1` [Example 256, N-(3-(2-(tert-butyl)-5-(2-((1-(methylsulfonyl)-piperidin-4-yl)amino)-pyrimidin-4-yl)thiazol-4-yl)-2-fluoro-phenyl)spiro [cyclopropane-1,1′-isoindoline]-2′-sulfonamide]: the concentration for half-maximal inhibition (IC50) amounted to 3.08 µM.

Regarding `O=S1(=O)CC2(CC(Nc3nccc(-c4sc(C56CC(C5)C6)nc4-c4cccc(NS(=O)(=O)N5CCc6c(F)cc(F)cc65)c4F)n3)C2)C1` [Example 37, N-(3-(2-(bicyclo [1.1.1]pentan-1-yl)-5-(2-((2,2-dioxido-2-thiaspiro[3.3]heptan-6-yl)amino)-pyrimidin-4-yl)thiazol-4-yl)-2-fluorophenyl)-4,6-difluoroindoline-1-sulfonamide], the concentration for half-maximal inhibition (IC50) amounted to 0.0745 µM.

Regarding `CC(C)(C)c1nc(-c2cccc(NS(=O)(=O)N3CCc4ccccc43)c2F)c(-c2ccnc(NC3CC4(C3)CS(=O)(=O)C4)n2)s1` [Example 192, N-(3-(2-(tert-butyl)-5-(2-((2,2-dioxido-2-thiaspiro[3.3]heptan-6-yl)amino)-pyrimidin-4-yl)thiazol-4-yl)-2-fluoro-phenyl)indoline-1-sulfonamide], the half-maximal inhibitory concentration (IC50) was determined as 0.0882 µM.

As to `CC(C)(C)c1nc(-c2cccc(NS(=O)(=O)N3CCc4c(C#N)cccc43)c2F)c(-c2ccnc(NC3CC4(C3)CS(=O)(=O)C4)n2)s1` [Example 193, N-(3-(2-(tert-butyl)-5-(2-((2,2-dioxido-2-thiaspiro[3.3]heptan-6-yl)amino)-pyrimidin-4-yl)thiazol-4-yl)-2-fluoro-phenyl)-4-cyanoindoline-1-sulfonamide], the IC50 was 0.125 µM.

For the compound `O=S1(=O)CC2(CC(Nc3nccc(-c4sc(N5C6CCC5CN(CC(F)(F)F)C6)nc4-c4cccc(NS(=O)(=O)N5Cc6cccc(C(F)(F)F)c6C5)c4F)n3)C2)C1` [Example 40, N-(3-(5-(2-((2,2-dioxido-2-thiaspiro-[3.3]-heptan-6-yl)amino)pyrimidin-4-yl)-2-(3-(2,2,2-trifluoroethyl)-3,8-diazabicyclo[3.2.1]-octan-8-yl)thiazol-4-yl)-2-fluorophenyl)-4-(trifluoromethyl)-isoindoline-2-sulfonamide], the IC50 is 0.192 µM.

On to `CC(C)(C)c1nc(-c2cccc(NS(=O)(=O)N3CCC4(CCCC4)C3)c2F)c(-c2ccnc(NC3CCN(S(=O)(=O)N4CCNCC4)CC3)n2)s1` [Example 176, N-(3-(2-(tert-butyl)-5-(2-((1-(piperazin-1-ylsulfonyl)piperidin-4-yl)amino)-pyrimidin-4-yl)thiazol-4-yl)-2-fluoro-phenyl)-2-azaspiro[4.4] nonane-2-sulfonamide], for which the IC50 was found to be 1.92 µM.

In the case of `O=S1(=O)C[C@@H]2[C@H](C1)[C@H]2Nc1nccc(-c2sc(C34CC(C3)C4)nc2-c2cccc(NS(=O)(=O)N3Cc4ccc(CO)cc4C3)c2F)n1` [Example 11, N-(3-(2-(bicyclo [1.1.1]pentan-1-yl)-5-(2-(((1R,5S,6r)-3,3-dioxido-3-thiabicyclo-[3.1.0]hexan-6-yl)amino)pyrimidin-4-yl)thiazol-4-yl)-2-fluorophenyl)-5-(hydroxymethyl) isoindoline-2-sulfonamide], the concentration for half-maximal inhibition (IC50) stood at 0.081 µM.

Consider `O=S1(=O)CC2(CC(Nc3nccc(-c4sc(C5(C(F)(F)F)CC5)nc4-c4cccc(NS(=O)(=O)N5CCc6ccc(C(F)(F)F)cc65)c4F)n3)C2)C1` [Example 286, N-(3-(5-(2-((2,2-dioxido-2-thiaspiro-[3.3]heptan-6-yl)amino)pyrimidin-4-yl)-2-(1-(trifluoromethyl)cyclopropyl)-thiazol-4-yl)-2-fluorophenyl)-6-(trifluoromethyl) indoline-1-sulfonamide], for which the concentration for half-maximal inhibition (IC50) turned out to be 0.574 µM.

For the compound `CC(C)(C)c1nc(-c2cccc(NS(=O)(=O)N3Cc4cccc(F)c4C3)c2F)c(-c2ccnc(NC3CCN(S(C)(=O)=O)CC3)n2)s1` [Example 71, N-(3-(2-(tert-butyl)-5-(2-((1-(methylsulfonyl)-piperidin-4-yl)amino)-pyrimidin-4-yl)thiazol-4-yl)-2-fluoro-phenyl)-4-fluoroisoindoline-2-sulfonamide], the IC50 was 0.076 µM.

Regarding `CS(=O)(=O)[C@H]1CC[C@H](Nc2nccc(-c3sc(N4C5CCC4CN(CC(F)(F)F)C5)nc3-c3cccc(NS(=O)(=O)N4CCc5ccc(C(F)(F)F)cc54)c3F)n2)CC1` [Example 296, N-(2-fluoro-3-(5-(2-(((1r,4r)-4-(methylsulfonyl)cyclohexyl)amino)-pyrimidin-4-yl)-2-(3-(2,2,2-trifluoroethyl)-3,8-diazabicyclo[3.2.1]-octan-8-yl)thiazol-4-yl)phenyl)-6-(trifluoromethyl) indoline-1-sulfonamide], the IC50 was found to be 1.19 µM.
